How the values were obtained:
Type in all cases: cell-based, Pseudomonas aeruginosa
[1] = system: P. aeruginosa strain PAR 20 biofilm; assay: Early biofilm model, Congo red staining; details: for absorbance (Congo red, biofilm formation): early biofilm, 0.9 mM, 492 nm
Summary of the method: (§1)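 Biofilm set up from 1×10^8 CFU/ml P. aeruginosa in TSB, centrifuged 10 min at 2000 rpm; iminosugars at 0.9 mM added at seeding, incubated up to 48 h at 37° C. Biofilm stained with 0.1% Congo red for 30 min and read at 492 nm at 0, 0.5, 8, 24 and 48 h, with viable counts in parallel; TSB-only cultures served as control.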

[2] = system: P. aeruginosa strain PAR 5 biofilm; assay: Early biofilm model, Congo red staining; details: for absorbance (Congo red, biofilm formation): 0.9 mM, 492 nm
Summary of the method: as §1

[3] = system: P. aeruginosa strain PAR 50 biofilm; assay: Early biofilm model, Congo red staining; details: for absorbance (Congo red, biofilm formation): early biofilm, 0.9 mM, 492 nm
Summary of the method: as §1

[4] = system: P. aeruginosa strain PAR 20 biofilm; assay: Mature biofilm model, Congo red staining; details: for absorbance (Congo red, biofilm development): mature biofilm, compound added 48 h after induction of biofilm
Summary of the method: (§2)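 Compounds added 48 h after bacterial adherence in 96-well plates; biofilm checked at 48, 48.5, 56, 72 and 96 h. Biomass stained with 0.1% Congo red for 30 min at room temperature, washed, absorbance read at 492 nm. Triplicate means ±SD.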

[5] = system: P. aeruginosa strain PAR 5 biofilm; assay: Mature biofilm model, Congo red staining; details: for absorbance (Congo red, biofilm development): mature biofilm, compound added 48 h after induction of biofilm
Summary of the method: as §2

[6] = system: P. aeruginosa strain PAR 50 biofilm; assay: Mature biofilm model, Congo red staining; details: for absorbance (Congo red, biofilm development): mature biofilm, compound added 48 h after induction of biofilm
Summary of the method: as §2

[7] = system: P. aeruginosa strain PAR 20; assay: Number of viable bacteria in early and mature biofilm (viable count)
Summary of the method: (§3)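 Biofilm contents of P. aeruginosa PAR 5, PAR 20 or PAR 50 wells sampled at 0-96 h, iminosugars added at 48 h. Decimal dilutions in TSB were plated on McConkey agar, incubated 24 h at 37° C., and colonies counted as log CFU/ml; detection limit 100 CFU/ml.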

[8] = system: P. aeruginosa strain PAR 50; assay: as above
Summary of the method: as §3

[9] = system: P. aeruginosa strain PAR 5; assay: as above
Summary of the method: as §3

[10] = system: P. aeruginosa strain PAR 5 biofilm; assay: Reduction of biofilm growth (percent vs culture control)
Summary of the method: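 Iminosugars at 0.9 mM final were added to P. aeruginosa in TSB either at seeding (early biofilm, 48 h at 37° C) or 48 h after bacterial adherence (mature biofilm). Biofilm stained with Congo Red and read spectrophotometrically; percent decrease in thickness is the mean of 3 measurements relative to untreated control (100%).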

[11] = system: P. aeruginosa strain PAR 20 biofilm; assay: as above
[12] = system: P. aeruginosa strain PAR 50 biofilm; assay: as above
Summary of the method: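 Biofilms grown in TSB at 37 °C; compounds at 0.9 mM final added at inoculation (early biofilm, 48 h) or 48 h after bacterial adherence (mature biofilm). Congo Red-stained biofilm read by spectrophotometry, mean of 3 measurements; reduction expressed as percent versus untreated control set to 100%.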

[13] = in comparison with culture control

CCC[C@H]1N[C@@H](CO)[C@H](O)[C@H]1O [Compound 4, β-1-C-propyl-1,4-dideoxy-1,4-imino-L-arabinitol]
absorbance (Congo red, biofilm formation) ([1]; 8 hours): about 0.6 a.u. | absorbance (Congo red, biofilm formation) ([1]; 24 hours): about 1.0 a.u. | absorbance (Congo red, biofilm formation) ([1]; 48 hours): about 0.75 a.u. | effect on formation of an early biofilm [1, 13]: inhibit the formation of an early biofilm | biofilm formation at 8 hours, 24 hours and 48 hours ([2]; early biofilm): no biofilm formation | absorbance (Congo red, biofilm formation) ([2]; early biofilm, 8 hours): about 0.25 a.u. | absorbance (Congo red, biofilm formation) ([2]; early biofilm, 24 hours): about 0.25 a.u. | absorbance (Congo red, biofilm formation) ([2]; early biofilm, 48 hours): about 0.25 a.u. | effect on formation of an early biofilm [2, 13]: inhibit the formation of an early biofilm | absorbance (Congo red, biofilm formation) ([3]; 8 hours): about 0.8 a.u. | absorbance (Congo red, biofilm formation) ([3]; 24 hours): about 1.4 a.u. | absorbance (Congo red, biofilm formation) ([3]; 48 hours): about 0.9 a.u. | effect on formation of an early biofilm [3, 13]: inhibit the formation of an early biofilm | influence on mature biofilm formation [4]: weak influence | absorbance (Congo red, biofilm development) ([4]; 48 hours): about 0.5 a.u. | absorbance (Congo red, biofilm development) ([4]; 56 hours): about 0.75 a.u. | absorbance (Congo red, biofilm development) ([4]; 72 hours): about 1.25 a.u. | absorbance (Congo red, biofilm development) ([4]; 96 hours): about 1.75 a.u. | influence on mature biofilm formation [5]: weak influence | absorbance (Congo red, biofilm development) ([5]; 48 hours): about 0.5 a.u. | absorbance (Congo red, biofilm development) ([5]; 56 hours): about 1.25 a.u. | absorbance (Congo red, biofilm development) ([5]; 72 hours): about 1.25 a.u. | absorbance (Congo red, biofilm development) ([5]; 96 hours): about 0.5 a.u. | influence on mature biofilm formation [6]: weak influence | absorbance (Congo red, biofilm development) ([6]; 48 hours): about 1.4 a.u. | absorbance (Congo red, biofilm development) ([6]; 56 hours): about 1.4 a.u. | absorbance (Congo red, biofilm development) ([6]; 72 hours): about 1.5 a.u. | absorbance (Congo red, biofilm development) ([6]; 96 hours): about 1.75 a.u. | number of viable P. aeruginosa ([7]; early biofilm, 0 h): 5 × 10^6 CFU/ml | number of viable P. aeruginosa ([7]; early biofilm, 8 h): 2 × 10^7 CFU/ml | number of viable P. aeruginosa ([7]; early biofilm, 24 h): 4 × 10^8 CFU/ml | number of viable P. aeruginosa ([7]; early biofilm, 48 h): 3 × 10^9 CFU/ml | number of viable P. aeruginosa ([7]; mature biofilm, 56 h): 9 × 10^8 CFU/ml | number of viable P. aeruginosa ([7]; mature biofilm, 72 h): 8 × 10^7 CFU/ml | number of viable P. aeruginosa ([7]; mature biofilm, 96 h): 4 × 10^8 CFU/ml | number of viable P. aeruginosa ([8]; early biofilm, 0 h): 1 × 10^7 CFU/ml | number of viable P. aeruginosa ([8]; early biofilm, 8 h): 2 × 10^8 CFU/ml | number of viable P. aeruginosa ([8]; early biofilm, 24 h): 7 × 10^8 CFU/ml | number of viable P. aeruginosa ([8]; early biofilm, 48 h): 1 × 10^8 CFU/ml | number of viable P. aeruginosa ([8]; mature biofilm, 56 h): 3 × 10^9 CFU/ml | number of viable P. aeruginosa ([8]; mature biofilm, 72 h): 9 × 10^9 CFU/ml | number of viable P. aeruginosa ([8]; mature biofilm, 96 h): 1 × 10^9 CFU/ml | number of viable P. aeruginosa ([9]; early biofilm, 0 h): 9 × 10^6 CFU/ml | number of viable P. aeruginosa ([9]; early biofilm, 8 h): 3 × 10^6 CFU/ml | number of viable P. aeruginosa ([9]; early biofilm, 24 h): 9 × 10^7 CFU/ml | number of viable P. aeruginosa ([9]; early biofilm, 48 h): 3 × 10^7 CFU/ml | number of viable P. aeruginosa ([9]; mature biofilm, 56 h): 4 × 10^8 CFU/ml | number of viable P. aeruginosa ([9]; mature biofilm, 72 h): 3 × 10^8 CFU/ml | number of viable P. aeruginosa ([9]; mature biofilm, 96 h): 2 × 10^9 CFU/ml | reduction of biofilm growth ([10]; 8 hours of incubation): about 90% | reduction of biofilm growth ([10]; 24 hours of incubation): about 90% | reduction of biofilm growth ([10]; 48 hours of incubation): about 25% | reduction of biofilm growth ([10]; 72 hours of incubation): about 10% | effect on biofilm growth ([10]; notably an early biofilm): can reduce the biofilm growth | reduction of biofilm growth ([11]; 8 hours of incubation): about 60% | reduction of biofilm growth ([11]; 24 hours of incubation): about 35% | reduction of biofilm growth ([11]; 48 hours of incubation): about 45% | reduction of biofilm growth ([11]; 72 hours of incubation): about 0% | effect on biofilm growth ([11]; notably an early biofilm): can reduce the biofilm growth | reduction of biofilm growth ([12]; 8 hours of incubation): about 60% | reduction of biofilm growth ([12]; 24 hours of incubation): about 35% | reduction of biofilm growth ([12]; 48 hours of incubation): about 45% | reduction of biofilm growth ([12]; 72 hours of incubation): about 30% | effect on biofilm growth ([12]; notably an early biofilm): can reduce the biofilm growth

Reference: patent publication US10745395B2, “Compounds for their use as drugs for the treatment and/or the prevention of infection(s) caused by biofilm-forming bacteria” (CENTRE NATIONAL DE LA RECHERCHE SCIENTIFIQUE, priority 2014, dated 2020)
